Data on six molecules can be found in US9481685B2, “Imaging neuroinflammation” (GE Healthcare Limited, priority 2008, dated 2016).

Read-outs that look alike come from different tables or passages of the source.

Data set [1] addresses Wistar rat heart PBR (Rattus norvegicus (Rat), UniProt P16257). The data set can be described thus: In vitro potency assay: competition for binding to PBR against 0.3 nM [3H]-PK-11195. The procedure:
The reaction was carried out in 50 mM Tris-HCl, pH 7.4 10 mM MgCl2 for 15 minutes at 25° C.

Data set [2] has as its target T1, PBR (Rattus norvegicus (Rat), UniProt P16257). Nature of the data set: Autoradiography using facial nerve axotomy (FNA) model. It is filed as in vivo. Conditions: facial nucleus, 30 minutes after injection. The procedure: For in vivo studies, male Wistar rats (180-200 g) were used. Under Isoflurane anaesthesia, the hair from the right side of the auricular region was removed. An infraauricular incision was made and the main trunk of the facial nerve identified. The facial nerve was severed behind the ear at the exit from the stylomastoid foramen. The wound was sutured and animals left to recover. Seven days post-surgery animals were injected with ˜5-10 MBq in vivo imaging agent 1 via the lateral tail vein. Animals were killed 30 minutes later and brain stem removed and frozen in isopentane. Cryostat sections (12 μm) of brainstem containing both facial nuclei were mounted on glass slides and exposed to phosphor screen overnight.
Screens were then scanned on the Storm (GE Healthcare) phosphor-imager and the resultant scan was analysed and quantified using ImageQuant TL (GE Healthcare).

Data set [3] concerns the target T1, PBR. Nature of the data set: In vivo biodistribution, olfactory bulb:striatum uptake. Conditions: 18F-labelled agents, adult male Wistar rats, lateral tail vein, 30 min post-injection. The procedure:
In vivo imaging agents 1-7 as prepared in Examples 7, 8 and 9 above were tested in the in vivo biodistribution model and their biodistribution compared to that of the prior art compound [^18F]FE-PBR (prepared according to Example 14 of WO 2007/057705).
Adult male Wistar rats (200-300 g) were injected with 1-3 MBq of each in vivo imaging agent via the lateral tail vein. At 2 10,30 or 60 min (n=3) after injection, rats were euthanised and tissues or fluids were sampled for radioactive measurement by liquid scintillation counting.

Setting [4] is: non-radioactive analogues, Wistar rat heart PBR, vs 0.3 nM [3H]-PK-11195, 15 minutes at 25° C., read-out: Ki.

With `CCN(CC)C(=O)C1Sc2ccccc2-c2c1c1cc(OC)ccc1n2CCF` (racemic) [Imaging Agent 1, (+-)-11-(2-fluoroethyl)-8-methoxy-6,11-dihydro-5-thia-11-aza-benzo[a]fluorene-6-carboxylic acid diethyl amide], in data set [1] (setting [4]), the Ki (in general, a dissociation constant, usually derived from enzyme kinetics or from competition with a known ligand) is 0.37 nM. Also, the “Average intensity in the lesioned side” value in data set [2] (lesioned side, seven days post-surgery) was 7.75±0.95. In data set [2] (non-lesioned side), the “Average intensity in the non-lesioned side” value was found to be 3.73±0.36.

For `CCN(CC)C(=O)C1Sc2ccccc2-c2c1c1ccccc1n2CC[18F]` (stereo not shown) [[^18F]FE-PBR, reference compound], the affinity in data set [1], expressed as Ki, was 0.68 nM. Moreover, in data set [3], the “OB:Striatum @ 30 min” value was determined as 1.42.

In the case of `CCOc1ccc2c(c1)c1c(n2CCF)-c2ccccc2SC1C(=O)N(CC)CC` (stereo not shown) [compound 6], the Ki in data set [1] (setting [4]) worked out at 0.52 nM. Further, in data set [3], the “OB:Striatum @ 30 min” value was found to be 2.67.

Turning to `CCN(CC)C(=O)C1Sc2ccccc2-c2c1c1c(OC)cccc1n2CCF` (stereo not shown) [compound 7], in data set [1] (setting [4]), the Ki was 1.09 nM. The “OB:Striatum @ 30 min” value in data set [3] came to 2.42.

In the case of “(+-)-4-fluoro-11-(2-fluoroethyl)-6,11-dihydro-5-thia-11-aza-benzo[a]fluorene-6-carboxylic acid diethyl amide [Imaging Agent 4]”, in data set [1] (setting [4]), the Ki is 0.93 nM. Moreover, in data set [3], the “OB:Striatum @ 30 min” value came out at 2.00.

“(+-)-11-(2-fluoroethyl)-10-methoxy-6,11-dihydro-5-thia-11-aza-benzo[a]fluorene-6-carboxylic acid diethyl amide [Imaging Agent 3]”: the inhibition constant Ki in data set [1] (setting [4]) is 0.4 nM. For the same molecule, the “OB:Striatum @ 30 min” value in data set [3] is reported as 3.50.
